Molecules are shown by their SMILES. Activity calls are given as the source filed them. The rule behind the calls is not given here.

For experiment [1], the system named is PC-3. The experiment in a line: Disruption of microtubules in human PC3 cells at 100 nM after 12 hrs. In kind it is functional, cell-based.
Experiment [2] has as its system PC-3. The experiment in a line: Antiproliferative activity against human PC3 cells after 72 hrs by MTT assay. In kind it is functional. The settings on record: PC-3, 72 h. (Tetrazolium assays rely on reduction of a dye to a coloured formazan, in cell work by metabolically active cells.)
Experiment [3] can be described thus: Antiproliferative activity against human MDA231 cells after 72 hrs by MTT assay. Format: functional. The settings on record: MDA-MB-231, 72 h.
For a further experiment, the system named is SK-BR-3. The experiment is described as follows: Antiproliferative activity against human SKBr3 cells after 72 hrs by MTT assay. Format: functional. The settings on record: SK-BR-3, 72 h.
For another experiment, the system named is MCF7. The experiment is described as follows: Antiproliferative activity against human MCF7 cells after 72 hrs by MTT assay. In kind it is functional. The settings on record: MCF7, 72 h.

In the case of `CC(=O)O[C@H]1C(=O)[C@@]2(C)[C@H]([C@H](OC(=O)c3ccccc3)[C@]3(O)C[C@H](OC(=O)[C@H](O)[C@@H](NC(=O)c4ccccc4)c4ccccc4)C(C)=C1C3(C)C)[C@]1(OC(C)=O)CO[C@@H]1C[C@@H]2O`, in the experiment with PC-3 [1], the result was Active.
In general, GI50 refers to the concentration that inhibits growth by half. For `CO[C@@H]1/C=C(C)/C=C/[C@@H](C)/C=C/C(=O)O[C@H](/C(C)=C/C=C(\C)CNC(=O)[C@H](COC(=O)Nc2ccccc2)NC=O)[C@@H](C)/C=C/C=C/[C@@H](OC)CC/C=C(C)\C=C\C1`, the concentration for 50% growth inhibition (GI50) with PC-3 [2] worked out at 15.3 nM; in experiment [3], 12 nM; in the experiment with SK-BR-3, 20 nM; with MCF7, 7.5 nM.
`CO[C@@H]1/C=C(C)/C=C/[C@@H](C)/C=C(\C)C(=O)O[C@H](/C(C)=C/C=C(\C)CNC(=O)[C@H](COC(=O)Nc2ccccc2)NC=O)[C@@H](C)/C=C/C=C/[C@@H](OC)CC/C=C(C)\C=C\C1`: the concentration for 50% growth inhibition (GI50) in the experiment on PC-3 [2] is 9.9 nM; in experiment [3], 8.8 nM; in the experiment with SK-BR-3 it was 10.5 nM; with MCF7, 8.3 nM.

The values above are taken from ChEMBL document CHEMBL1143025, “Synthesis of carbamate derivatives of iejimalides. Retention of normal antiproliferative activity and localization of binding in cancer cells” (2007).
